Assay results taken from patent US4540581A, “Topical nonsteroidal anti-inflammatory compositions and uses” (Bristol-Myers Company, priority 1984, dated 1985).
Where “and” joins values, the source holds several entries; their conditions need not be identical. Identical values can stand only once. Counter-ions that a name gives are not always drawn.

Legend:
[1] = tested on: croton oil-induced ear edema in mice; assay: Croton oil-induced ear edema in mice, compounds IV and V vs zinterol (Example 4); assay type: in vivo, Swiss albino mice; settings: for % Reduction of Ear Edema Weight as Compared to Control Ears / Anti-inflammatory activity in croton oil-induced ear edema (in words): topical; for % Reduction of Ear Edema Weight as Compared to Control Ears: 6 h, single study; for % Reduction of Ear Edema Weight as Compared to Control Ears, Mean ± S.D.: mean of studies; for Anti-inflammatory activity in croton oil-induced ear edema (in words): NMP/ETOH
Protocol: In these tests, the anti-inflammatory effect of these three β2 agonists when applied topically to the croton oil-induced ear edema in mice was investigated. In these tests, 50 μl of 4 weight percent croton oil in ethanol was applied to the inner aspects of the right and the left ears of Swiss albino mice, followed immediately by 25 μof suspensions of 0.02, 0.2, and 0.8 weight percent of compound IV and compound V in N-methylpyrrolidone/Ethyl alcohol (i.e., NMP/ETOH) applied to the outer aspect of each ear. Croton oil treated and nontreated control groups were included. These control groups are included in the data as described hereinbefore.
Six hours later, the animals were sacrificed with CO2 gas, and a 5/16 inch punch biopsy of each ear was taken and weighed immediately.
The anti-inflammatory effects for the test agents were assessed by a comparison of the biopsy weights of the test and control groups.

[2] = tested on: UVB-Induced Erythema in Guinea Pig; assay: UVB-induced erythema in guinea pigs (Example 3); assay type: in vivo; settings: for Topical Anti-Inflammatory Activity, UV-B Assay (Erythema): summary grade of % inhibition; for Activity in the UVB assay (in words): zinterol 3 and 1.6 weight percent, indomethacin 1 weight percent
Protocol: (§1) The percent inhibition of induced mouse ear edema (or erythema) for each of the three models (in Examples 1, 2 and 3) is calculated: [formula]
In the UVB test, cutaneous erythema is induced in guinea pigs.This test is a standard test widely used for testing anti-inflammatory agents and is fully described in K. F. Swingle, "Evaluation for Anti-Inflammatory Activity", in Anti-Inflammatory Agents, vol. 2, ed. by Scherrer and Whitehouse, pp. 34-122, London: Academic Press, 1974, hereby incorporated herein by reference. In the UVB model, the test material was applied topically to the irradiated sites immediately following exposure to UVB. Erythema was scored on a 0 to 4 scale, 3 and 6 hours after irradiation.

[3] = tested on: Oxazolone-Induced Edema in Mouse Ear; assay: Oxazolone-induced ear edema in mice (Example 2); assay type: in vivo; settings: for % Inhibition of Oxazolone-Induced Edema in Mouse Ear: topical, mean of 10 to 15 animals; for Topical Anti-Inflammatory Activity, Oxazolone Assay (Edema): summary grade of % inhibition
Description: Oxazolone-induced contact sensitization in mice is characterized by edema and cellular infiltration, primarily of the monocyte type, with close to 100% increase in the mouse ear weight.

[4] = tested on: Croton Oil-Induced Mouse Ear Edema; assay: Croton oil-induced ear edema in mice (Example 1); assay type: in vivo; settings: for % Inhibition of Croton Oil-Induced Mouse Ear Edema: topical, 6 h, mean of 10 to 15 animals; for Topical Anti-Inflammatory Activity, Croton Oil Assay (Edema): summary grade of % inhibition; for Reduction in ear edema in the croton oil assay (in words): zinterol at 1.6 and 0.2 w/v percent, bitolterol at 1.6 w/v percent
Protocol: In the croton oil assay, (which is a standard test, which is fully described in Tonelli et al, Endocrinology, vol. 77, pp. 625-634, 1965, and which is hereby incorporated herein by reference) topical application of four % croton oil in ethanol (v/v) to the ears of mice causes intercellular edema, vasodilation, and polymorphonuclear leucocyte infiltration into the dermis, leading to an increase over normal ear weight of about 70 to 100%. The inflammatory response is nearly maximal by 6 hours. In the croton oil tests, four volume % croton oil in ethanol was applied to the inner aspect of both ears of each test mouse, and various test materials in vehicle systems were applied to the outer aspect of the ears immediately following croton oil application. Control animals were exposed either to croton oil alone or to croton oil followed by the vehicle alone.
Six hours after exposure to croton oil and/or test material, animals were sacrificed; and punch biopsies of the ears were weighed and compared to the respective vehicle control.
Compounds were tested in simple solutions, including dimethylacetamide/acetone/ethanol (i.e., DMAC/A/E v/v 40/30/30) and N-methyl pyrrolidone/ethanol (NMP/E v/v 50/50). Comparative controls were chosen based on their known activity in each of the three above-described animal assays and included in all three tests (in Examples 1, 2 and 3) hydrocortisone valerate (HCV) in the croton oil and oxazolone assays, indomethacin (which is a potent aspirin-like nonsteroidal anti-inflammatory agent) in the UVB test, and salbutamol (a β2 agonist, discussed above in the Background of the Invention).
as §1

[5] = Solubility of active ingredient in vehicles; assay type: physicochemical
[6] = 0.02 % weight/volume in NMP/ETOH
[7] = 0.2 % weight/volume in NMP/ETOH
[8] = 0.8 % weight/volume in NMP/ETOH
[9] = 3 w/v %, N-methyl 2-pyrrolidone/ethanol (50/50), 3 h, salbutamol in Ethanol/H2O or NMP/H2O
[10] = 3 w/v %, N-methyl 2-pyrrolidone/ethanol (50/50), 6 h, salbutamol in Ethanol/H2O or NMP/H2O
[11] = 3 w/v %, in N-methylpyrrolidone:ethanol (1:1)
[12] = 1.6 w/v %, in NMP/ETOH (50/50), salbutamol in Ethanol/H2O (50/50)
[13] = 0.2 w/v %, in DMAC/acetone/ethanol (40:30:30)
[14] = 1.6 w/v %, in DMAC/acetone/ethanol (40:30:30)

In the case of `CC(C)(Cc1ccccc1)NCC(O)c1ccc(O)c(NS(C)(=O)=O)c1` (centres unmarked) [Zinterol, 2-hydroxy-5'-[1-hydroxy-2-(2-methyl-1-phenyl-2-propylamino)ethyl]methanesulfonanilide], the “% Reduction of Ear Edema Weight as Compared to Control Ears” value [1, 6] is reported as 14.2% and 23.6%, the “% Reduction of Ear Edema Weight as Compared to Control Ears, Mean ± S.D.” value (“% Reduction of Ear Edema Weight … Mean ± S.D.” below) [1, 6] is reported as 18.9 ± 6.6% and the “% Reduction of Ear Edema Weight as Compared to Control Ears” value [1, 7] is reported as 39.5% and 66.2% and 46.6%. The “% Reduction of Ear Edema Weight … Mean ± S.D.” value [1, 7] was 50.8 ± 13.8%, the “% Reduction of Ear Edema Weight as Compared to Control Ears” value [1, 8] was 68.2% and 56.6% and the “% Reduction of Ear Edema Weight … Mean ± S.D.” value [1, 8] was 62.4 ± 8.2%. The “% Change in UVB-Induced Erythema in Guinea Pig” value (shortened to “% Change in UVB-Induced Erythema”) ([2]; 1.6 w/v %, N-methyl 2-pyrrolidone/ethanol (50/50), 3 h) was 9%, the “% Change in UVB-Induced Erythema” value ([2]; 1.6 w/v %, N-methyl 2-pyrrolidone/ethanol (50/50), 6 h) was 26% and the “% Change in UVB-Induced Erythema” value [2, 9] was 48% and 75%. The “% Change in UVB-Induced Erythema” value [2, 10] was 18% and 25%, the “Topical Anti-Inflammatory Activity, UV-B Assay (Erythema)” value [2] was “+ (+ = Slight (30-44))” and the “Activity in the UVB assay (in words)” value [2] was “slight to moderate activity with no consistent dose effect”. The “Reduction in ear edema in the oxazolone assay (in words)” value ([3]; 3 and 1.6 weight percent) was “slight reduction in ear edema with no dose-related effect”, the “% Inhibition of Oxazolone-Induced Edema in Mouse Ear” value (shortened to “% Inhibition … in Mouse Ear”) [3, 11] was 39% and the “Topical Anti-Inflammatory Activity, Oxazolone Assay (Edema)” value [3] was “+ (+ = Slight (30-44))”. The “Topical cutaneous anti-inflammatory activity in the croton oil assay (in words)” value ([4]; 1.6 w/v %) was “high topical cutaneous anti-inflammatory activity”, the “% Inhibition of Croton Oil-Induced Mouse Ear Edema” value ([4]; 1.6 w/v %, in DMAC/Acetone/ETOH, salbutamol in Ethanol/H2O (50/50)) was 69% and 50% and 81% and 66% and 63% and 48% and 45% and the “% Inhibition of Croton Oil-Induced Mouse Ear Edema” value [4, 12] was 69% and 63% and 70% and 48% and 73%. For the same compound, the “Topical Anti-Inflammatory Activity, Croton Oil Assay (Edema)” value [4] was “+++ (+++ = high (60%))” and the “Reduction in ear edema in the croton oil assay (in words)” value [4] was “good to moderate reductions in ear edema”.
With `CC(C)(Cc1ccccc1)NCC(O)c1ccc(O)c(NS(C)(=O)=O)c1` (centres unmarked) [zinterol hydrochloride] the solubility ([5]; organic solvent or mixture, cream vehicle, read-out: Amount that will dissolve in creams) was at most 7000 µg/mL and the “Solubility (in words)” value ([5]; water) was “water soluble”.
In the case of `COc1ccc2c(c1)c(CC(=O)O)c(C)n2C(=O)c1ccc(Cl)cc1` [Indomethacin, indomethacin], the “% Change in UVB-Induced Erythema” value ([2]; 1%, DMAC/acetone/ethanol (40/30/30), 3 h) is reported as 72% and 54% and 82%, the “% Change in UVB-Induced Erythema” value ([2]; 1%, DMAC/acetone/ethanol (40/30/30), 6 h) is reported as 43% and 48% and 54% and the “% Change in UVB-Induced Erythema” value ([2]; 1%, N-methyl 2-pyrrolidone/ethanol (50/50), 3 h) is reported as 100% and 93% and 91%. The “% Change in UVB-Induced Erythema” value ([2]; 1%, N-methyl 2-pyrrolidone/ethanol (50/50), 6 h) was 74% and 85% and 87%, the “Topical Anti-Inflammatory Activity, UV-B Assay (Erythema)” value [2] was “+++ (+++ = high (60%))” and the “Activity in the UVB assay (in words)” value [2] was “good to very good activity”. The “Topical Anti-Inflammatory Activity, Oxazolone Assay (Edema)” value [3] was “+ (+ = Slight (30-44))” and the “Topical Anti-Inflammatory Activity, Croton Oil Assay (Edema)” value [4] was “+ (+ = Slight (30-44))”.
With `CC(C)(Cc1c[nH]c2ccccc12)NCC(O)c1ccc(O)c(NS(C)(=O)=O)c1` (centres unmarked) [Compound V] the “% Reduction of Ear Edema Weight as Compared to Control Ears” value [1, 6] was 29.9%, the “% Reduction of Ear Edema Weight as Compared to Control Ears” value [1, 7] was 53.5% and the “% Reduction of Ear Edema Weight as Compared to Control Ears” value [1, 8] was 69.9%. For the same compound, the “Anti-inflammatory activity in croton oil-induced ear edema (in words)” value [1] was “comparable to that of zinterol”.
For `CCCCC(=O)O[C@]1(C(=O)CO)CC[C@H]2[C@@H]3CCC4=CC(=O)CC[C@]4(C)[C@H]3[C@@H](O)C[C@@]21C` [HCV, hydrocortisone valerate], the “% Inhibition … in Mouse Ear” value [3, 13] was 16%, the “% Inhibition … in Mouse Ear” value [3, 14] was 36% and 27% and the “% Inhibition … in Mouse Ear” value [3, 11] was 39%. The “Topical Anti-Inflammatory Activity, Oxazolone Assay (Edema)” value [3] was “+ (+ = Slight (30-44))”, the “% Inhibition of Croton Oil-Induced Mouse Ear Edema” value ([4]; 0.2 w/v %, in DMAC/Acetone/ETOH, salbutamol in Ethanol/H2O (50/50), minus = potentiation) was 25% and 38% and 34% and the “% Inhibition of Croton Oil-Induced Mouse Ear Edema” value ([4]; 0.2 w/v %, in NMP/ETOH (50/50)) was 71% and 62% and 64% and 67% and 73%. The “% Inhibition of Croton Oil-Induced Mouse Ear Edema” value [4, 12] was 70% and 71% and the “Topical Anti-Inflammatory Activity, Croton Oil Assay (Edema)” value [4] was “+++ (+++ = high (60%))”.
In the case of `Cc1ccc(C(=O)Oc2ccc(C(O)CNC(C)(C)C)cc2OC(=O)c2ccc(C)cc2)cc1` (centres unmarked) [Bitolterol, bitolterol], the “% Inhibition of Croton Oil-Induced Mouse Ear Edema” value ([4]; 0.2 w/v %, in NMP/ETOH (50/50)) is reported as 42% and 25% and 34%, the “% Inhibition of Croton Oil-Induced Mouse Ear Edema” value [4, 12] is reported as 61% and the “Reduction in ear edema in the croton oil assay (in words)” value [4] is reported as “good to moderate reductions in ear edema”.
In the case of `CC(C)(C)NCC(O)c1ccc(O)c(CO)c1` (centres unmarked) [Salbutamol, salbutamol], the “% Change in UVB-Induced Erythema” value ([2]; 1.6 w/v %, DMAC/acetone/ethanol (40/30/30), 3 h, salbutamol in Ethanol/H2O or NMP/H2O) is reported as 9%, the “% Change in UVB-Induced Erythema” value ([2]; 1.6 w/v %, DMAC/acetone/ethanol (40/30/30), 6 h, salbutamol in Ethanol/H2O or NMP/H2O) is reported as “+4%” and the “% Change in UVB-Induced Erythema” value [2, 9] is reported as 42% and 45%. For the same compound, the “% Change in UVB-Induced Erythema” value [2, 10] was 32% and 25%, the “Topical Anti-Inflammatory Activity, UV-B Assay (Erythema)” value [2] was “+ (+ = Slight (30-44))” and the “% Inhibition … in Mouse Ear” value [3, 13] was -1% and -9%. The “% Inhibition … in Mouse Ear” value [3, 14] was 2% and 0%, the “% Inhibition … in Mouse Ear” value ([3]; 1.6 w/v %, in N-methylpyrrolidone:ethanol (1:1)) was 21% and 28% and the “% Inhibition … in Mouse Ear” value [3, 11] was 31%. The “Topical Anti-Inflammatory Activity, Oxazolone Assay (Edema)” value [3] was “+ (+ = Slight (30-44))” and the “Topical Anti-Inflammatory Activity, Croton Oil Assay (Edema)” value [4] was “+ (+ = Slight (30-44))”.
With `CC(Cc1c[nH]c2ccccc12)NCC(O)c1ccc(O)c(NS(C)(=O)=O)c1` (centres unmarked) [Compound IV] the “% Reduction of Ear Edema Weight … Mean ± S.D.” value [1, 6] was 18.1 ± 10.6%, the “% Reduction of Ear Edema Weight as Compared to Control Ears” value [1, 7] was 32.9% and 48.7% and 49.4% and the “% Reduction of Ear Edema Weight … Mean ± S.D.” value [1, 7] was 43.7 ± 9.3%. For the same compound, the “% Reduction of Ear Edema Weight as Compared to Control Ears” value [1, 8] was 61.6% and 53.4%, the “% Reduction of Ear Edema Weight … Mean ± S.D.” value [1, 8] was 57.5 ± 5.8% and the “Anti-inflammatory activity in croton oil-induced ear edema (in words)” value [1] was “comparable to that of zinterol”.
